From BindingDB's records for doi:10.1111/j.1747-0285.2010.00957.x (Pfizer, 2010) come the findings set out here.

Assay [1] addresses Phosphopantetheine adenylyltransferase (Enterococcus faecalis (strain ATCC 700802 / V583), UniProt Q831P9). Kind of assay: High-Throughput Screening Assay (Forward Direction Assay). As to the method:
(§1) PPAT screening assay (forward-direction assay) were performed in clear 384 well plates containing in each well either 1-uL DMSO, 1 uL of variable concentrations of test compounds solvated in DMSO or 1 uL of a 100-uM solution of a dipeptide inhibitor of PPAT in DMSO which serves as the fully inhibit control.

The target in assay [2] is T1, Phosphopantetheine adenylyltransferase (Escherichia coli (strain K12), UniProt P0A6I6). The description is as above. The procedure:
as §1

Assay [3] addresses T1, Phosphopantetheine adenylyltransferase. Kind of assay: Reverse PPAT Assay. The procedure: The reverse assay was performed in polyproplene 96-well plates containing in each well either 1 uL DMSO, 1 µL of variable concentrations of test compounds solvated in DMSO or 1 µL of a 100-uM solution of a dipeptide inhibitor of PPAT in DMSO which serves as control.

Each structure is given as a SMILES string.

T1 sequence (P0A6I6 whole entry): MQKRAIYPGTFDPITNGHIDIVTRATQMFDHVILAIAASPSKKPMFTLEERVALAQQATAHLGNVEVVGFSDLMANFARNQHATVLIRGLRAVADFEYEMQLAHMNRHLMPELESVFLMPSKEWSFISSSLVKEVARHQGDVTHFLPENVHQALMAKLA
Phosphopantetheine adenylyltransferase (Enterococcus faecalis (strain ATCC 700802 / V583), UniProt Q831P9), sequence (Q831P9 whole entry): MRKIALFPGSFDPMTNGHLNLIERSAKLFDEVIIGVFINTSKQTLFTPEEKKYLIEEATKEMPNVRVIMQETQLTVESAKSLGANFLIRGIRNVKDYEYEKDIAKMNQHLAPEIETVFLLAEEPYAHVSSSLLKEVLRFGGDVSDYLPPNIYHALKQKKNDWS

Turning to `Cc1c(C(=O)O)[nH]n2c(=O)c3ccc(Cl)cc3nc12` [3-substituted pyrazoloquinolone, 24], the 50% inhibitory concentration (IC50) – broadly, the concentration needed to halve the response being measured – in assay [1] was over 167 µM; in assay [2], 106 µM.
Regarding `Cn1c2ccc(Cl)cc2c(=O)n2nc(C(=O)O)cc12` [4-substituted pyrazoloquinolone, 18], it took 160 µM to reach half-maximal inhibition in assay [2] (IC50).
As for `Cc1ccc2c(=O)n3[nH]c(C(=O)O)cc3nc2c1` [6-substituted pyrazoloquinolone, 19], the half-inhibitory concentration (IC50) was over 167 µM in assay [1] and 15 µM in assay [2].
Take `O=C(O)c1cc2nc3cc(C(F)(F)F)ccc3c(=O)n2[nH]1` [6-substituted pyrazoloquinolone, 20]: the IC50 is over 167 µM in assay [1], 54 µM in assay [2] and 200 µM in assay [3].
For the compound `Nc1ccc2c(=O)n3[nH]c(C(=O)O)cc3nc2c1` [6-substituted pyrazoloquinolone, 21], the values for the IC50 in assay [1] and in assay [2] were 100 µM and 121 µM, respectively.
Turning to `O=C(O)c1cc2nc3cc(Br)ccc3c(=O)n2[nH]1` [6-substituted pyrazoloquinolone, 22], the IC50 in assay [1] is over 167 µM; in assay [2], 124 µM; in assay [3], over 125 µM.
For the compound `O=C(O)c1cc2nc3cc(Cl)ccc3c(=O)n2[nH]1` [6-substituted pyrazoloquinolone, 23], the IC50 in assay [1] came out at 212 µM; in assay [2] it was 49 µM; in assay [3], 93 µM.
`O=C(O)c1cc2nc3ccccc3c(=O)n2[nH]1` [7-substituted pyrazoloquinolone, 6]: the IC50 was over 167 µM in assay [1], 253 µM in assay [2] and over 230 µM in assay [3].
As for `Cc1ccc2nc3cc(C(=O)O)[nH]n3c(=O)c2c1` [7-substituted pyrazoloquinolone, 7], the 50% inhibitory concentration (IC50) in assay [2] amounted to 244 µM.
In the case of `O=C(O)c1cc2nc3ccc(Cl)cc3c(=O)n2[nH]1` [7-substituted pyrazoloquinolone, 8], the half-maximal inhibitory concentration (IC50) in assay [1] was over 75 µM; in assay [2] it was 17 µM.
With `O=C(O)c1cc2nc3ccc(F)cc3c(=O)n2[nH]1` [7-substituted pyrazoloquinolone, 9], the concentration for half-maximal inhibition (IC50) is over 167 µM in assay [1] and 103 µM in assay [2].
For the compound `O=C(O)c1cc2nc3ccc(Br)cc3c(=O)n2[nH]1` [7-substituted pyrazoloquinolone, 10], the figures for the IC50 in assay [1], in assay [2] and in assay [3] were 209 µM, 6.2 µM and 22 µM, respectively.
For `O=C(O)c1cc2nc3ccc(I)cc3c(=O)n2[nH]1` [7-substituted pyrazoloquinolone, 11] the same measures were over 137 µM, 5.1 µM and 11 µM.
For `CSc1ccc2nc3cc(C(=O)O)[nH]n3c(=O)c2c1` [7-substituted pyrazoloquinolone, 12], the half-maximal inhibitory concentration (IC50) in assay [1] was over 65 µM; in assay [2] it was 13 µM; in assay [3], 8.8 µM.
As to `C[S+]([O-])c1ccc2nc3cc(C(=O)O)[nH]n3c(=O)c2c1` (centres undefined) [7-substituted pyrazoloquinolone, 13], the IC50 in assay [1] came out at 20 µM; in assay [2], 166 µM.
In turn, `CS(=O)(=O)c1ccc2nc3cc(C(=O)O)[nH]n3c(=O)c2c1` [7-substituted pyrazoloquinolone, 14] registered a half-inhibitory concentration (IC50) in assay [2] of 92 µM.
With `CC(C)Sc1ccc2nc3cc(C(=O)O)[nH]n3c(=O)c2c1` [7-substituted pyrazoloquinolone, 15], the 50% inhibitory concentration (IC50) in assay [1] is 249 µM; in assay [2], 14 µM; in assay [3], 5 µM.
Consider `CN(C)c1ccc2nc3cc(C(=O)O)[nH]n3c(=O)c2c1` [7-substituted pyrazoloquinolone, 16], for which the values for the IC50 in assay [1], in assay [2] and in assay [3] were 157 µM, 49 µM and 7.1 µM, respectively.
Regarding `COc1ccc2nc3cc(C(=O)O)[nH]n3c(=O)c2c1` [7-substituted pyrazoloquinolone, 17], the IC50 in assay [1] is over 167 µM; in assay [2], over 150 µM.
